Results on four compounds are retold here after BindingDB's records for doi:10.1016/s0014-5793(97)00196-8 (Merck Research Laboratories, 1997).

pKi: −log10 of the molar value. Non-standard residues stand in square brackets, D forms with d. Residues, ends and D or L forms follow the SMILES beside them.

For the test, the target named is T1, Galanin receptor type 2 (Rattus norvegicus, UniProt O08726).
T1 sequence (O08726 whole entry): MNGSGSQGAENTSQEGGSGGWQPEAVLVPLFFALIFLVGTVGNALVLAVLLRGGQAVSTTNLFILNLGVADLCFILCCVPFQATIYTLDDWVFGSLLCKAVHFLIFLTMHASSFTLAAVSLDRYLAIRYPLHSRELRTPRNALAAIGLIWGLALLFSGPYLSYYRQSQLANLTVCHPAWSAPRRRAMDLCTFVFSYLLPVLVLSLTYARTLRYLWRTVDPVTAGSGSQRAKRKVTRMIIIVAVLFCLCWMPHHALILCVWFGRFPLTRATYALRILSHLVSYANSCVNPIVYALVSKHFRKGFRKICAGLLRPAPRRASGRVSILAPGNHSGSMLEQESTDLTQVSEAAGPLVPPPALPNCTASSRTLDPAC
The term pKi denotes the negative decadic logarithm of the Ki, by convention in mol/L. A higher pKi goes with a low Ki. For the compound `CC(C)C[C@H](NC(=O)[C@H](CC(C)C)NC(=O)[C@@H](Cc1c[nH]c2ccccc12)NC(=O)[C@H](Cc1ccccc1)NC(=O)[C@@H](Cc1c[nH]c2ccccc12)NC(=O)[C@H](CCC(N)=O)NC(=O)[C@H](CCC(N)=O)NC(=O)[C@@H]1CCCN1C(=O)[C@H](CCCCN)NC(=O)[C@@H]1CCCN1C(=O)[C@@H](CCCNC(=N)N)NC(=O)[C@@H]1CCCN1C(=O)CNC(=O)[C@H](CC(C)C)NC(=O)[C@H](CC(C)C)NC(=O)[C@H](Cc1ccc(O)cc1)NC(=O)CNC(=O)[C@H](C)NC(=O)[C@H](CO)NC(=O)[C@H](CC(N)=O)NC(=O)[C@H](CC(C)C)NC(=O)[C@@H](NC(=O)[C@H](Cc1c[nH]c2ccccc12)NC(=O)CN)[C@@H](C)O)C(N)=O` [Gal(1-13)-Std I] (H-GWTLNSAGYLLGP[dR]PKPQQ[dW]F[dW]LL-NH2), the negative logarithm of the Ki (pKi) is 7.64.

In turn, `CC[C@H](C)[C@H](NC(=O)[C@H](C)NC(=O)[C@H](Cc1c[nH]cn1)NC(=O)[C@@H]1CCCN1C(=O)CNC(=O)[C@H](CC(C)C)NC(=O)[C@H](CC(C)C)NC(=O)[C@H](Cc1ccc(O)cc1)NC(=O)CNC(=O)[C@H](C)NC(=O)[C@H](CO)NC(=O)[C@H](CC(N)=O)NC(=O)[C@H](CC(C)C)NC(=O)[C@@H](N)[C@@H](C)O)C(=O)N[C@@H](CC(=O)O)C(=O)N[C@@H](CC(N)=O)C(=O)N[C@@H](Cc1c[nH]cn1)C(=O)N[C@@H](CCCNC(=N)N)C(=O)N[C@@H](CO)C(=O)N[C@@H](Cc1ccccc1)C(=O)N[C@@H](CO)C(=O)N[C@@H](CC(=O)O)C(=O)N[C@@H](CCCCN)C(=O)N[C@@H](Cc1c[nH]cn1)C(=O)NCC(=O)N[C@@H](CC(C)C)C(=O)N[C@H](C(N)=O)[C@@H](C)O` [Galanin (3-29), rat] showed a pKi of 6.00.

`CC[C@H](C)[C@H](NC(=O)[C@H](C)NC(=O)[C@H](Cc1c[nH]cn1)NC(=O)[C@@H]1CCCN1C(=O)CNC(=O)[C@H](CC(C)C)NC(=O)[C@H](CC(C)C)NC(=O)[C@H](Cc1ccc(O)cc1)NC(=O)CNC(=O)[C@H](C)NC(=O)[C@H](CO)NC(=O)[C@H](CC(N)=O)NC(=O)[C@H](CC(C)C)NC(=O)[C@@H](NC(=O)[C@@H](N)Cc1c[nH]c2ccccc12)[C@@H](C)O)C(=O)N[C@@H](CC(=O)O)C(=O)N[C@@H](CC(N)=O)C(=O)N[C@@H](Cc1c[nH]cn1)C(=O)N[C@@H](CCCNC(=N)N)C(=O)N[C@@H](CO)C(=O)N[C@@H](Cc1ccccc1)C(=O)N[C@@H](CO)C(=O)N[C@@H](CC(=O)O)C(=O)N[C@@H](CCCCN)C(=O)N[C@@H](Cc1c[nH]cn1)C(=O)NCC(=O)N[C@@H](CC(C)C)C(=O)N[C@H](C(N)=O)[C@@H](C)O` [Galanin Porcine 2-29]: the negative logarithm of the Ki (pKi) is 8.54.

Consider H-GWTLNSAGYLLGPPPALALA-NH2 [M40], for which the pKi was 8.72.
